Reference: patent US12551484B2, “Methods of treatment and/or prevention of major adverse cardiovascular events (MACE) with a combination of a BET bromodomain inhibitor and a sodium dependent glucose transport 2 inhibitor” (Resverlogix Corp., priority 2019, dated 2026)
Where two headings read alike, the source gives them in different places.

How the values were obtained:
type 2 diabetes patients [1] = settings: human, in vivo; cited from earlier work
[2] = tested on: type 2 diabetes patients with low HDL cholesterol and a recent acute coronary syndrome (ACS); experiment: BETonMACE Phase 3 trial (NCT02586155), post-hoc analysis by SGLT2 inhibitor use
Protocol: All patients received high intensity statin treatment as well as other evidence-based treatments.
Patients (n=2425) with ACS in the preceding 7 to 90 days, with type 2 diabetes and low HDL cholesterol (≤40 mg/dl for men, 45 mg/dl for women), receiving intensive or maximum-tolerated therapy with atorvastatin or rosuvastatin, were assigned in double-blind fashion to receive apabetalone 100 mg orally twice daily or matching placebo. […] The primary efficacy measure is time to first occurrence of cardiovascular death, non-fatal myocardial infarction, or stroke.
Those patients who received at least one dose of SGLT2 treatment after the date of the first incidence of event were censored as non-MACE events and the date of last contact was used as the censoring date.
The distributions of the endpoints within the apabetalone and placebo groups were compared using a two-sided log-rank test (LRT) with an alpha=0.05 level of significance. The cumulative incidence is shown as 1-KM (Kaplan-Meier) estimate for event rate.

type 2 diabetes patients [3] = settings: cited from earlier work
[4] = cardiovascular death, non-fatal myocardial infarction, or stroke, FIGS. 1-2
[5] = patients not treated with SGLT2 inhibitor, vs placebo (FIG. 2)
[6] = patients not treated with SGLT2 inhibitor, vs placebo (FIG. 5)
[7] = patients not treated with SGLT2 inhibitor, vs placebo (FIG. 8)
[8] = patients not treated with SGLT2 inhibitor, vs placebo (FIG. 11)
[9] = patients not treated with SGLT2 inhibitor, vs placebo (FIG. 14)
[10] = patients not treated with SGLT2 inhibitor, vs placebo (FIG. 17)

Question: Which “HR, narrowly defined MACE” value (type 2 diabetes patients [1]) does the source give for `Cc1ccc([C@@H]2O[C@H](CO)[C@@H](O)[C@H](O)[C@H]2O)cc1Cc1ccc(-c2ccc(F)cc2)s1` [Canaglifozin, canagliflozin] here?
Answer: 0.86

Question: What about the “reduction of narrowly defined MACE” value (type 2 diabetes patients [1]) of the same compound?
Answer: 14%

Question: And the “reductions in the individual MACE events” value (type 2 diabetes patients [1])?
Answer: did not reach statistical significance

Question: With `COc1cc(OC)c2c(=O)[nH]c(-c3cc(C)c(OCCO)c(C)c3)nc2c1` [apabetalone, 2-(4-(2-hydroxyethoxy)-3,5-dimethylphenyl)-5,7-dimethoxyquinazolin-4(3H)-one] as the compound, how does the “Kaplan-Meier estimated event rate, narrowly defined MACE” value ([2]; at 18 months, FIGS. 1-2) read?
Answer: 8.0%

Question: And the “primary end points (narrowly defined MACE), number in group” value [2, 4]?
Answer: 111

Question: What about the “primary end points (narrowly defined MACE), percent of group” value [2, 4] of the same compound?
Answer: 10.5%

Question: And the “Hazard Ratio [HR], narrowly defined MACE” value [2, 5]?
Answer: 0.84

Question: What about the “reduction of number of patients having a narrowly defined MACE event at any given time” value [2, 5] of the same compound?
Answer: 16%

Question: What about the “Hazard Ratio [HR], broadly defined MACE” value [2, 6] of the same compound?
Answer: 0.87

Question: And the “reduction of number of patients having a broadly defined MACE event at any given time” value [2, 6]?
Answer: 13%

Question: And the “Hazard Ratio [HR], non-fatal myocardial infarction” value [2, 7]?
Answer: 0.85

Question: What about the “reduction of number of patients having a non-fatal myocardial infarction event at any given time” value [2, 7] of the same compound?
Answer: 15%

Question: What about the “Hazard Ratio [HR], cardiovascular death” value [2, 8] of the same compound?
Answer: 0.84

Question: What about the “reduction of number of patients having a cardiovascular death event at any given time” value [2, 8] of the same compound?
Answer: 16%

Question: What about the “Hazard Ratio [HR], hospitalization for cardiovascular diseases” value [2, 9] of the same compound?
Answer: 0.87

Question: And the “reduction of number of patients having a hospitalization for cardiovascular diseases event at any given time” value [2, 9]?
Answer: 13%

Question: What about the “Hazard Ratio [HR], hospitalization for congestive heart failure” value [2, 10] of the same compound?
Answer: 0.61

Question: What about the “reduction of number of patients having a hospitalization for congestive heart failure event at any given time” value [2, 10] of the same compound?
Answer: 39%

Question: Which “HR, broadly defined MACE” value (type 2 diabetes patients [3]; human, in vivo) does the source give for `OC[C@H]1O[C@@H](c2ccc(Cl)c(Cc3ccc(O[C@H]4CCOC4)cc3)c2)[C@H](O)[C@@H](O)[C@@H]1O` [empaglifozin, empagliflozin] here?
Answer: 0.89

Question: And the “HR, cardiovascular deaths” value (type 2 diabetes patients [3]; human, in vivo)?
Answer: 0.62

Question: And the “Hazard Ratio [HR], narrowly defined MACE” value (type 2 diabetes patients [3]; human, in vivo)?
Answer: 0.86

Question: What about the “reduction of broadly defined MACE” value (type 2 diabetes patients [3]; human, in vivo) of the same compound?
Answer: 11%

Question: What about the “reduction of narrowly defined MACE” value (type 2 diabetes patients [3]; human, in vivo) of the same compound?
Answer: 14%

Question: What about the “HR, individual MACE events” value (type 2 diabetes patients [3]; with the exception of cardiovascular deaths, did not show any reduction) of the same compound?
Answer: 1.0
